Experimental data as given in PMC5884628 (International journal of biological macromolecules, 2016).

What was measured:
Pseudomonas aeruginosa = conditions: ref [26], [27], cited from earlier work
[1] = system: human pathogenic bacteria; multi-drug resistant bacterial strains; conditions: broad spectrum of microbes; ref [26], [27]; cited from earlier work
erythrocytes = conditions: ref [26], [27]; cited from earlier work
[2] = ref [26], [27]; cited from earlier work
melanoma cell = conditions: ref [31]; cited from earlier work
[3] = system: burns and acute infections; conditions: ref [26], [27]; cited from earlier work
P. aeruginosa = conditions: rat models; ref [26], [27]; cited from earlier work
[4] = system: wild-type membrane bound F1Fo ATP synthase; assay: Inhibition of membrane bound F1Fo ATPase activity by venom peptides; format: biochemical, Escherichia coli; conditions: 60 min preincubation at RT, pH 8.0; Fig. 2
Staphylococcus aureus = conditions: ref [26], [27], cited from earlier work
Escherichia coli = conditions: ref [26], [27]; cited from earlier work
[5] = system: null E. coli strain (pUC118/DK8); assay: Growth of null E. coli in the presence of venom peptides; format: cell-based, Escherichia coli; conditions: null strain in comparison to wild-type
[6] = system: wild-type E. coli strain (pBWU13.4/DK8); assay: Growth of wild-type E. coli in the presence of venom peptides; format: cell-based, Escherichia coli; conditions: wild-type in comparison to null strain
E. coli = conditions: ref [18], [19]; cited from earlier work
E. coli ATP synthase = conditions: ref [18], [19]; cited from earlier work

Substance	effectiveness against drug-resistant Pseudomonas aeruginosa (Pseudomonas aeruginosa; drug-resistant)	time to kill P. aeruginosa (Pseudomonas aeruginosa)	antimicrobial activity in comparison to gentamicin, ampicillin, or bacitracin [1]	hemolytic activity (erythrocytes)	cytotoxic activity [2]	melanoma cell proliferation (melanoma cell)	effectiveness in burns and acute infections [3]	P. aeruginosa colony formation (P. aeruginosa)	subsequent infection and inflammation (P. aeruginosa)	inhibition of ATP synthase (in words) [4]	effectiveness against drug-resistant Staphylococcus aureus (Staphylococcus aureus; drug-resistant)	time to kill S. aureus (Staphylococcus aureus)	effectiveness against drug-resistant Escherichia coli (Escherichia coli)	inhibition of null E. coli (in words) [5]	inhibition of wild-type E. coli (in words) [6]	E. coli growth (E. coli)	inhibition of E. coli ATP synthase (E. coli ATP synthase)
KFFRKLKKSVKKRAKEFFKKPRVIGVSIPF [BF-30]	effective	less than 120 minutes	stronger antimicrobial activity	no obvious hemolytic	no obvious hemolytic or cytotoxic activity	selectively inhibit melanoma cell proliferation	effective	significantly reduced	prevented	strong inhibition of ATP synthase	effective	less than 120 minutes	effective	partial inhibition	potent inhibition		
melittin																abrogation of E. coli growth	potently inhibit
